This note sets out measurements from publication PMC8617627, “Novel DYRK1A Inhibitor Rescues Learning and Memory Deficits in a Mouse Model of Down Syndrome” (Pharmaceuticals, 2021).

Each structure is given as a SMILES string. Read-outs that look alike come from different tables or passages of the source.

What all share (assay): Kinase profile (33P ATP filter binding)
Holding throughout (type): biochemical

One experiment deals with PAK6 (Homo sapiens, UniProt Q9NQU5). The following applies: read-out: Remaining protein kinase activity.
The target in the next experiment is T1, SGK1 (Homo sapiens, UniProt O00141).
T1 sequence (O00141 1-431): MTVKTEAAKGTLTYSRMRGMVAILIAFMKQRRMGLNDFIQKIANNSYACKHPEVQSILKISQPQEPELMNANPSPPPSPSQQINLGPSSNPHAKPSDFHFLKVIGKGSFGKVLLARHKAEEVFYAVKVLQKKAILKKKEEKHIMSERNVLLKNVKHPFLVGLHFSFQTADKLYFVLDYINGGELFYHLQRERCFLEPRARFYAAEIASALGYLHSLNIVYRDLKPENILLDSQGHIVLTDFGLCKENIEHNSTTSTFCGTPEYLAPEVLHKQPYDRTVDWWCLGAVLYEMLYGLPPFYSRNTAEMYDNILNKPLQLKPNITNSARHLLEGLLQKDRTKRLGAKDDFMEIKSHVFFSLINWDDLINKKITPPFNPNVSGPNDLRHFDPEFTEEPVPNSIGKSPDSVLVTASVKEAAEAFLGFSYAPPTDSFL
Conditions: read-out: Remaining protein kinase activity.

The target in another experiment is OSR1 (Homo sapiens, UniProt O95747). The following applies: read-out: Remaining protein kinase activity.
In another experiment the target is VEG-FR (Homo sapiens, UniProt P17948). The following applies: read-out: Remaining protein kinase activity.
In the next experiment the target is T2, NEK2a (Homo sapiens, UniProt P51955).
T2 sequence (P51955 1-445): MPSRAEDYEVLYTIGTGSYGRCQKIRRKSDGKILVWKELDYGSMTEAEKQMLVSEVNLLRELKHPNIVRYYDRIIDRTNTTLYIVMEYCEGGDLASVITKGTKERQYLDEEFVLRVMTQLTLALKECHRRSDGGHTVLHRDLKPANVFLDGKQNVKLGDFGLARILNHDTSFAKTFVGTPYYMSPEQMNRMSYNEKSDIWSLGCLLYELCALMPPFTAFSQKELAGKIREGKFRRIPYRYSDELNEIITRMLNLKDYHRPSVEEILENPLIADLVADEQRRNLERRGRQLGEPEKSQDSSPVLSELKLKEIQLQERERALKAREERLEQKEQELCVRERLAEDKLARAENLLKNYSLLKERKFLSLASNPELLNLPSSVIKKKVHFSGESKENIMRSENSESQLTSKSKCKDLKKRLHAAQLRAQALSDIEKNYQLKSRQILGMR
Conditions: read-out: Remaining protein kinase activity.

In another experiment the target is T3, p38g MAPK (Homo sapiens, UniProt P53778).
T3 sequence (P53778 1-367): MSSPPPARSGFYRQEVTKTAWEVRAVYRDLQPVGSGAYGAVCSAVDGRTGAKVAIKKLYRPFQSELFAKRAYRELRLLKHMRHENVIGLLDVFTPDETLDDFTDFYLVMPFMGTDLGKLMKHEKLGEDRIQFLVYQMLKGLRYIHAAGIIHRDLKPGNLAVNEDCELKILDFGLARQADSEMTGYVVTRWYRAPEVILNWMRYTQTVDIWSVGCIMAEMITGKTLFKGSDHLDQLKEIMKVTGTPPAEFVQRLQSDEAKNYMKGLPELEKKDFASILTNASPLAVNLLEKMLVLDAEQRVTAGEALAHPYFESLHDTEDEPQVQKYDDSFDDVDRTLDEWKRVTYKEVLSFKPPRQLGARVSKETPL
Conditions: read-out: Remaining protein kinase activity.

The target in the next experiment is IRR (Homo sapiens, UniProt P14616). Conditions: read-out: Remaining protein kinase activity.
In a further experiment the target is T4, NUAK1 (Homo sapiens, UniProt O60285).
T4 sequence (O60285 1-661): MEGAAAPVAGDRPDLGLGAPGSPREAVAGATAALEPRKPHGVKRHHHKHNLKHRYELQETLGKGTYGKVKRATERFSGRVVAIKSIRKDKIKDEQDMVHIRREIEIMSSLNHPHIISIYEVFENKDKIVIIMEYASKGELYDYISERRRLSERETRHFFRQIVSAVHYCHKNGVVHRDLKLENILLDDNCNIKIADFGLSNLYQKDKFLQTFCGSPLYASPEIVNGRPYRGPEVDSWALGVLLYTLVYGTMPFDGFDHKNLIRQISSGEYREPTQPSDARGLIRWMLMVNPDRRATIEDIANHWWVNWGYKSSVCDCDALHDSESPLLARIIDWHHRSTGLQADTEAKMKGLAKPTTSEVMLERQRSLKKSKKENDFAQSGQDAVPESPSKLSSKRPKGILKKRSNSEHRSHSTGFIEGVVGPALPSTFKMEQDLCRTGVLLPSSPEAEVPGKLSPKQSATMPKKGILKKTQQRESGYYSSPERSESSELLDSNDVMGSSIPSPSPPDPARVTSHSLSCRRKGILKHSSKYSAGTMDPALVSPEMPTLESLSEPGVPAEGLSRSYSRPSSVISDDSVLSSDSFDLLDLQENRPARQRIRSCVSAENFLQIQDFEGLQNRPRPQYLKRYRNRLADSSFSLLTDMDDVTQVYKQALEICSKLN

A further experiment deals with PHK.
Another experiment deals with CK2 (Homo sapiens, UniProt P68400). The following applies: read-out: Remaining protein kinase activity.
Another experiment concerns the target SRPK1 (Homo sapiens, UniProt Q96SB4). The following applies: read-out: Remaining protein kinase activity.

IRR, sequence (P14616 27-1297): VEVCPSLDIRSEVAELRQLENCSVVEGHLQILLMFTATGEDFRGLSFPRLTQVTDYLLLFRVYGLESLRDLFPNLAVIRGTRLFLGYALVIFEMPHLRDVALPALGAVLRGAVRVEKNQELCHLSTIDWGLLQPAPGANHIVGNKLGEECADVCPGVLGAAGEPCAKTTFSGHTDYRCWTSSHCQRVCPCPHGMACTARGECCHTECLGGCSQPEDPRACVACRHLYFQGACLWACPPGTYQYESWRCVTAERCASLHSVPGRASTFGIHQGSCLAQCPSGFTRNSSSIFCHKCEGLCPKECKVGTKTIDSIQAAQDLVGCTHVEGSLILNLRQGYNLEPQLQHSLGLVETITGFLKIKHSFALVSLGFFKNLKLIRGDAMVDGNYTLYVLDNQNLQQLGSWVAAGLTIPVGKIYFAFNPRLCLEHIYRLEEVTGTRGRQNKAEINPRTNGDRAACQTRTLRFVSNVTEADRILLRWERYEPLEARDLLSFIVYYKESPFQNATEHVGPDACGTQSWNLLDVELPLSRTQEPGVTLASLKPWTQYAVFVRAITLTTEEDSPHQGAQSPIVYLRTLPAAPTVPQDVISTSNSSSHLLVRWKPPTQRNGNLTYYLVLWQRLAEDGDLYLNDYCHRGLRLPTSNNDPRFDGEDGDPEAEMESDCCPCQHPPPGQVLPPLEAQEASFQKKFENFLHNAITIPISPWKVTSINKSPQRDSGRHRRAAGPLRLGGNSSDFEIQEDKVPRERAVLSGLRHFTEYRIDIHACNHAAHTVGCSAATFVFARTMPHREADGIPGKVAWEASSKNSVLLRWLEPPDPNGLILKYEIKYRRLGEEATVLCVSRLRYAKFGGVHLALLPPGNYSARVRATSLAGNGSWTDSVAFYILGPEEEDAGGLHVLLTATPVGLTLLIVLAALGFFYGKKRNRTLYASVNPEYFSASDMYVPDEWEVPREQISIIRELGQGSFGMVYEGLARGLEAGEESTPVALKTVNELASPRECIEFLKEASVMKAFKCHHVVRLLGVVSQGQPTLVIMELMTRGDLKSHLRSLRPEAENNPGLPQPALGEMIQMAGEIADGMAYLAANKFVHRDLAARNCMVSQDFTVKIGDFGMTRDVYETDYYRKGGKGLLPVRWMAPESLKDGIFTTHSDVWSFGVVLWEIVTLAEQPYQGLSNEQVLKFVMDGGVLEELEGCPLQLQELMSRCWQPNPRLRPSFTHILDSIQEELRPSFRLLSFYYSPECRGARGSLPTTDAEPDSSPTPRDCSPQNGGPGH
OSR1, sequence (O95747 whole entry): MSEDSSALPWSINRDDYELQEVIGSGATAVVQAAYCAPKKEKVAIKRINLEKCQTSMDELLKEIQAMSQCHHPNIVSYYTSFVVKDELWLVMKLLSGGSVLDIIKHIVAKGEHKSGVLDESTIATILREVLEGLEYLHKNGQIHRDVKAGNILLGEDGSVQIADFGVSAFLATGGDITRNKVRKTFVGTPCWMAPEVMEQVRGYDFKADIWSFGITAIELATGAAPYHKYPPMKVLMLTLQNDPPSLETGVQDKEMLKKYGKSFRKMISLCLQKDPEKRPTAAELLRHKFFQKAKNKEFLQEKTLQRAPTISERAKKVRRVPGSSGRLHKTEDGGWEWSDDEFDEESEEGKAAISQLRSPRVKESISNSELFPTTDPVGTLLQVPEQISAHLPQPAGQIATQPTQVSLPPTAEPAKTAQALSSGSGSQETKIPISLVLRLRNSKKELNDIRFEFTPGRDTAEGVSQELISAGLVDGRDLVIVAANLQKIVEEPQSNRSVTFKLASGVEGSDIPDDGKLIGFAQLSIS
VEG-FR, sequence (P17948 27-1338): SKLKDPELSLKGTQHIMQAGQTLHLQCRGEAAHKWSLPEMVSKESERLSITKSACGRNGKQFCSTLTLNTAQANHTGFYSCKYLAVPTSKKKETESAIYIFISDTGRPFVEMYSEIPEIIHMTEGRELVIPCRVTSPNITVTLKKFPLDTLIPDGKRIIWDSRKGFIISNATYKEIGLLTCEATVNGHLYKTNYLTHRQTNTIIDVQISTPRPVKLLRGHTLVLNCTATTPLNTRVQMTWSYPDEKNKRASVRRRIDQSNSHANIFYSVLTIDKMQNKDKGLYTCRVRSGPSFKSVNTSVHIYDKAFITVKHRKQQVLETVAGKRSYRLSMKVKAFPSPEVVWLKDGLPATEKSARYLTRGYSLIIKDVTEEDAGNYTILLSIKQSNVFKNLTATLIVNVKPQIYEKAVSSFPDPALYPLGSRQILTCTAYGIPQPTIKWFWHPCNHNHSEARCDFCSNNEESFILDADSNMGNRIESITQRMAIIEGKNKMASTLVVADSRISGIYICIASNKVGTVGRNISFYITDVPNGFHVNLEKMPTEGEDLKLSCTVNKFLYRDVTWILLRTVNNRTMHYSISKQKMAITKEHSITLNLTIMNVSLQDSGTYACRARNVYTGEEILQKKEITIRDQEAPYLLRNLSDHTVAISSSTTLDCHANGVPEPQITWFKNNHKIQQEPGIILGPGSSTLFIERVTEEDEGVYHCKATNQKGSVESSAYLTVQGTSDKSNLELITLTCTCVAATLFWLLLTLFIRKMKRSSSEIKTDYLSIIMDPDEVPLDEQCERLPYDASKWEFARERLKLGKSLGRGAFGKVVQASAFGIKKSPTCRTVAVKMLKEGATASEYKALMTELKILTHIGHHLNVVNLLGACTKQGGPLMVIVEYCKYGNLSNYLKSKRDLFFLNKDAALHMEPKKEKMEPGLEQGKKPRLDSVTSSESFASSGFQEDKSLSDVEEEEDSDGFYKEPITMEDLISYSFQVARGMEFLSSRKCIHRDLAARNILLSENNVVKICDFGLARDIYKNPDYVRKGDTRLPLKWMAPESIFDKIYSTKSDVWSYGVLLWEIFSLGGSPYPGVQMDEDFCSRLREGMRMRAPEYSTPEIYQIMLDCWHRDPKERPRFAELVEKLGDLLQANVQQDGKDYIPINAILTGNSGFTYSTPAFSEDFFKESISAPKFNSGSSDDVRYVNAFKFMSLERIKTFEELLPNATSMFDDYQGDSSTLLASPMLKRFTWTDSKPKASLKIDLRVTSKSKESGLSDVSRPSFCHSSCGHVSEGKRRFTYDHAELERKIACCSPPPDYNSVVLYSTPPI
SRPK1, sequence (Q96SB4 whole entry): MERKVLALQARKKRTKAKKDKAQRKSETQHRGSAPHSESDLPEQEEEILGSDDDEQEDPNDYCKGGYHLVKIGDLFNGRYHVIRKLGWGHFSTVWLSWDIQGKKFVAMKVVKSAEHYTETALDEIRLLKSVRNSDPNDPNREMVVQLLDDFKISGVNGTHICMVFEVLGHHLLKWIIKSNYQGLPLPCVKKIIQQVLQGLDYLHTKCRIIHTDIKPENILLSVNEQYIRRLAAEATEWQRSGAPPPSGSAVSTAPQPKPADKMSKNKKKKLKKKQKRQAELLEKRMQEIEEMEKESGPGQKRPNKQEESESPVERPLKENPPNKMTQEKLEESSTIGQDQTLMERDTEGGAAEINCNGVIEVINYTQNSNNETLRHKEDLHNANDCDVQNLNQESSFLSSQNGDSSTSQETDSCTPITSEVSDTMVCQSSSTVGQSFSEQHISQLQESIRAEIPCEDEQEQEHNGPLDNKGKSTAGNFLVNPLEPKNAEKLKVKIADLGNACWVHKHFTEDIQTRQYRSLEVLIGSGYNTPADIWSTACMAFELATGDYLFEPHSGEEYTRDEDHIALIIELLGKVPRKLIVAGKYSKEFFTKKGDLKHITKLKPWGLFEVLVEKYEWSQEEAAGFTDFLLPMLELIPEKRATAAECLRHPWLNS
CK2, sequence (P68400 whole entry): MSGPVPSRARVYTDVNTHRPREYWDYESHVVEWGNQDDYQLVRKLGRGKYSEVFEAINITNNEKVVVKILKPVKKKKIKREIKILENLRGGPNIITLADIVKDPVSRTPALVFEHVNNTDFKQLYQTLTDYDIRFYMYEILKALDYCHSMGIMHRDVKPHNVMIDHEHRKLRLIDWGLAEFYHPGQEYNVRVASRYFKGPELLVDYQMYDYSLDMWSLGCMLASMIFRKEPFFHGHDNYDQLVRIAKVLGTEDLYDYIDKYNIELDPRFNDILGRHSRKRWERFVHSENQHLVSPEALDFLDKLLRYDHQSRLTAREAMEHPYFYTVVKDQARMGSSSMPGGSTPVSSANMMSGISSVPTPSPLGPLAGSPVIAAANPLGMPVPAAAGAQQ
PAK6, sequence (Q9NQU5 whole entry): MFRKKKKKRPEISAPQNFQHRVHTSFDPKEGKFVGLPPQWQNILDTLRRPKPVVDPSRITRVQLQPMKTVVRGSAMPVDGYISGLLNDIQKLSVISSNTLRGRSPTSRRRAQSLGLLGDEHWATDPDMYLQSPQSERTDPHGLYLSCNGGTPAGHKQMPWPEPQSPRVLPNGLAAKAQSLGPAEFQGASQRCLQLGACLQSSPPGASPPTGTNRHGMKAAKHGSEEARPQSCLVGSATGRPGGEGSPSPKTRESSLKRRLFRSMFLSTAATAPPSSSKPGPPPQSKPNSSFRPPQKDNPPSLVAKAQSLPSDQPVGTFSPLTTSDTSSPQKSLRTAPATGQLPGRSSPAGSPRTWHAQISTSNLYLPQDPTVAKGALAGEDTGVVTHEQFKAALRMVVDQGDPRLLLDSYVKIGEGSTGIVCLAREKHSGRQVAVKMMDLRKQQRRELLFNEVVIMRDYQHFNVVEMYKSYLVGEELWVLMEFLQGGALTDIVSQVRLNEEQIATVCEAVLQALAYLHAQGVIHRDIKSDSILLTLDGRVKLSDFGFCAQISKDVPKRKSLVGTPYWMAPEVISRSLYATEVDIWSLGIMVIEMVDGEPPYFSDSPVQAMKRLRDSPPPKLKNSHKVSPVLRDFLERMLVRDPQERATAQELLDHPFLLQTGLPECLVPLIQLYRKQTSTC

In the case of `COc1ccc2sc(-c3cncc(N)c3)nc2c1` [compound 1, 5-(5-Methoxybenzo[d]thiazol-2-yl)pyridin-3-amine], the remaining activity at 1 µM worked out at 108% on PAK6 (PAK6, 1 μM); 99% on SGK1 (SGK1, 1 μM); 128% on OSR1 (OSR1, 1 μM); 110% on VEG-FR (VEG-FR, 1 μM); 111% on NEK2a (NEK2a, 1 μM); 110% at p38g MAPK (p38g MAPK, 1 μM). Also, the remaining activity at 1 µM is 113% on IRR (IRR, 1 μM); 103% on CK2 (CK2, 1 μM); 108% on SRPK1 (SRPK1, 1 μM). Besides, the remaining activity at 100 µM came out at 80% at PAK6 (PAK6, 100 μM); 62% at SGK1 (SGK1, 100 μM); 111% on OSR1 (OSR1, 100 μM); 20% at VEG-FR (VEG-FR, 100 μM); 51% at NEK2a (NEK2a, 100 μM); 37% at p38g MAPK (p38g MAPK, 100 μM). For the same compound, the remaining activity at 100 µM on IRR (IRR, 100 μM) was 77%; on CK2 (CK2) it was 21%; at SRPK1 (SRPK1, 100 μM), 55%. Besides, the “Remaining protein kinase activity” value turned out to be 112% at NUAK1 (1 μM), 35% at NUAK1 (100 μM), 101% in the experiment with PHK (1 μM) and 52% in the experiment on PHK (100 μM).
Turning to `COc1ccc2sc(-c3cncc(NC(C)=O)c3)nc2c1` [PST-001, N-(5-(5-Methoxybenzo[d]thiazol-2-yl)pyridin-3-yl)acetamide], the remaining activity at 1 µM at PAK6 is 112%; on SGK1 it was 102%; at OSR1 it was 120%; at VEG-FR, 111%; at NEK2a, 119%; on p38g MAPK, 125%. Also, the results for the remaining activity at 1 µM on IRR, at CK2 and at SRPK1 were 117%, 102% and 115%, respectively. For the same compound, the remaining activity at 100 µM on PAK6 was 113%; on SGK1, 82%; at OSR1, 136%; at VEG-FR, 41%; on p38g MAPK, 105%; on IRR it was 120%. The figures for the remaining activity at 100 µM at CK2 (CK2) and at SRPK1 were 95% and 108%, respectively. Moreover, the “Remaining protein kinase activity” value on NUAK1 (1 μM) is listed as 130%; in the experiment on PHK (100 μM), 83%.
